Results on two compounds are retold here after patent US9771353B2, “Kinase inhibitors based upon N-alkyl pyrazoles” (RESPIVERT LIMITED, priority 2013, dated 2017).

Assay [1] has as its system HT29 cells. Put plainly: IL-1β-induced IL-8 release in HT29 cells, assay (d). Type of assay: cell-based. The note with it: Homo sapiens, HT-29, IL-1β-stimulated HT29 cells, read-out: IC50 Values for Inhibition of Cytokine Release, HT29 cells IL-8. How it is done: HT29 cells, a human colon adenocarcinoma cell line, are plated in a 96 well plate (24 hrs) and pre-treated with compounds at the desired concentration for 2 hours before addition of 5 ng/mL of IL-1β (Abcam) for 24 hours. Supernatants are harvested for IL-8 quantification by Sandwich ELISA (Duo-set, R&D System). The IC50 is determined from the dose response curve.

For assay [2], the system named is PBMCs. Put plainly: IL-2 and IFN gamma release in CD3/CD28 stimulated PBMC cells, assay (c). Type of assay: cell-based. The note with it: Homo sapiens. The protocol: PBMCs from healthy subjects are separated from whole blood using a density gradient (Lymphoprep, Axis-Shield Healthcare). Cells are added to a 96 well plate pre-coated with a mixture of CD3/CD28 monoclonal antibodies (0.3 μg/mL eBioscience and 3 μg/mL BD Pharmingen respectively). Compound at the desired concentration is then added to the wells and the plate left for 3 days under normal tissue culture conditions. Supernatants are harvested and IL-2 and IFN gamma release determined by Sandwich ELISA (Duo-set, R&D System). The IC50 is determined from the dose response curve.

In assay [3] the target is Syk (Homo sapiens (Human), UniProt P43405). Put plainly: Syk enzyme inhibition (FRET, Z-LYTE). Type of assay: biochemical. How it is done: (§1) The enzyme inhibitory activities of compounds disclosed herein are determined by FRET using synthetic peptides labelled with both donor and acceptor fluorophores (Z-LYTE, Invitrogen Ltd., Paisley, UK).
The inhibitory activities of compounds of the invention against c-Src and Syk enzymes (Invitrogen), are evaluated in a similar fashion to that described hereinabove. The relevant enzyme (3000 ng/mL or 2000 ng/mL respectively, 2.5 μL) is incubated with the test compound (either 4 μg/mL, 0.4 μg/mL, 0.04 μg/mL, or 0.004 μg/mL, 2.5 μL each) for 2 hr at RT. The FRET peptides (8 μM, 2.5 μL), and appropriate ATP solutions (2.5 μL, 800 μM for c-Src, and 60 μM ATP for Syk) are then added to the enzymes/compound mixtures and incubated for 1 hr. Development reagent (protease, 5 μL) is added for 1 hr prior to detection in a fluorescence microplate reader (Varioskan® Flash, ThermoFisher Scientific).
(§2) In all cases, the site-specific protease cleaves non-phosphorylated peptide only and eliminates the FRET signal. Phosphorylation levels of each reaction are calculated using the ratio of coumarin emission (donor) over fluorescein emission (acceptor), for which high ratios indicate high phosphorylation and low ratios indicate low phosphorylation levels.

In assay [4] the test system is d-U937 cells. Put plainly: LPS-induced TNFα/IL-8 release in d-U937 cells, assay (a). The assay is classed as cell-based. The note with it: Homo sapiens, LPS-stimulated dU937 cells. The protocol:
U937 cells, a human monocytic cell line, are differentiated to macrophage-type cells by incubation with phorbol myristate acetate (PMA; 100 ng/mL) for 48 to 72 hr. Cells are pre-incubated with final concentrations of test compound for 2 hr and are then stimulated with 0.1 μg/mL of LPS (from E. Coli: O111:B4, Sigma) for 4 hr. The supernatant is collected for determination of TNFα and IL-8 concentrations by sandwich ELISA (Duo-set, R&D systems). The inhibition of TNFα production is calculated as a percentage of that achieved by 10 μg/mL of BIRB796 at each concentration of test compound by comparison against vehicle control. The relative 50% effective concentration (REC50) is determined from the resultant concentration-response curve. The inhibition of IL-8 production is calculated at each concentration of test compound by comparison with vehicle control.

Assay [5] deals with PBMCs. Put plainly: LPS-induced TNFα/IL-8 release in PBMC cells, assay (b). Type of assay: cell-based. The note with it: Homo sapiens, LPS-stimulated PBMCs, read-out: IC50 Values for Inhibition of Cytokine Release, PBMCs IL-8. The protocol: Peripheral blood mononuclear cells (PBMCs) from healthy subjects are separated from whole blood using a density gradient (Lymphoprep, Axis-Shield Healthcare). The PBMCs are seeded in 96 well plates and treated with compounds at the desired concentration for 2 hours before addition of 1 ng/mL LPS (Escherichia Coli 0111:B4 from Sigma Aldrich) for 24 hours under normal tissue culture conditions (37° C., 5% CO2). The supernatant is harvested for determination of IL-8 and TNFα concentrations by sandwich ELISA (Duo-set, R&D systems) and read on the fluorescence microplate reader (Varioskan® Flash, ThermoFisher Scientific).

In assay [6] the target is GSK3α (Homo sapiens (Human), UniProt P49840). Put plainly: GSK 3α enzyme inhibition (FRET, Z-LYTE), Method 2. The assay is classed as biochemical. The protocol:
as §1
The inhibitory activities of compounds of the invention against the GSK 3α enzyme isoform (Invitrogen), are evaluated by determining the level of activation/phosphorylation of the target peptide. The GSK3-α protein (500 ng/mL, 2.5 μL) is mixed with the test compound (2.5 μL at either 4 μg/mL, 0.4 μg/mL, 0.04 μg/mL, or 0.004 μg/mL) for 2 hr at RT. The FRET peptide (8 μM, 2.5 μL), which is a phosphorylation target for GSK3α, and ATP (40 μM, 2.5 μL) are then added to the enzyme/compound mixture and the resulting mixture incubated for 1 hr. Development reagent (protease, 5 μL) is added for 1 hr prior to detection in a fluorescence microplate reader (Varioskan® Flash, ThermoFisher Scientific).
as §2
This method follows the same steps as Method 1 above, but utilises a shorter period of mixing of the test compound (105 minutes instead of 2 hours) with the GSK3-α protein.

Setting [7] is: IL-2, read-out: IC50 Values for Inhibition of Cytokine Release, PBMCs IL-2.
[8] abbreviates: IL-8, read-out: IC50 Values for Inhibition of Cytokine Release, dU937 cells IL-8.
Where [9] appears, read: TNFα (method describes REC50 relative to BIRB796), read-out: IC50 Values for Inhibition of Cytokine Release, dU937 cells TNFα.

Read-outs that look alike come from different tables or passages of the source.

Chain of GSK3α (P49840 whole entry): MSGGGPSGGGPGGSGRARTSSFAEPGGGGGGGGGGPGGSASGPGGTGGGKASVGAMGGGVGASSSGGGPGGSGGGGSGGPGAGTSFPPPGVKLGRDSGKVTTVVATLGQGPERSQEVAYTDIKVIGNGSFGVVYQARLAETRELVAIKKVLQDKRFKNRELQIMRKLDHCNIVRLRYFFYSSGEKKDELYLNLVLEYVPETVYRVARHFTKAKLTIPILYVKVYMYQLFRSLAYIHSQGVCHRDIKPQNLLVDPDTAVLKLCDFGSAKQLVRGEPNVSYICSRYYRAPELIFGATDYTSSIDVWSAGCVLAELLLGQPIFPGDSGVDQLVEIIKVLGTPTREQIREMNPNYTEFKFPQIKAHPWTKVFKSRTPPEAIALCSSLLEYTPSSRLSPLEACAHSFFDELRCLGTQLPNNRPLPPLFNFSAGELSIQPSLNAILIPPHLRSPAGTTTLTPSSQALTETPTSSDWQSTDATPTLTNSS

As a reminder, the IC50 is the point on the concentration scale where inhibition reaches its midpoint. In the case of `COCCOCCOCCOc1cc(Nc2nccc(Oc3ccc(NC(=O)Nc4cc(C(C)(C)C)nn4C)c4ccccc34)n2)cc(OC)c1` [Example 2, 1-(3-(tert-Butyl)-1-methyl-1H-pyrazol-5-yl)-3-(4-((2-((3-methoxy-5-(2-(2-(2-methoxy-ethoxy)ethoxy)ethoxy)phenyl)amino)pyrimidin-4-yl)oxy)naphthalen-1-yl)urea], the IC50 in assay [1] turned out to be 16.6 nM; in assay [2] (IFNγ, read-out: IC50 Values for Inhibition of Cytokine Release, PBMCs IFNγ), 6.2 nM; in assay [2] (setting [7]) it was 11.3 nM; in assay [3], 543 nM; in assay [4] (setting [8]), 1 nM; in assay [4] (setting [9]), 2 nM. Besides, the half-maximal inhibitory concentration (IC50) in assay [5] is 3.6 nM; in assay [6] it was 5230 nM.
Take `C#Cc1cc(Nc2nccc(Oc3ccc(NC(=O)Nc4cc(C(C)(C)C)nn4C)c4ccccc34)n2)cc(C(=O)NCCN2CCOCC2)c1` [Example 1, 3-((4-((4-(3-(3-(tert-Butyl)-1-methyl-1H-pyrazol-5-yl)ureido)naphthalen-1-yl)oxy)pyrimidin-2-yl)amino)-5-ethynyl-N-(2-morpholinoethyl)benzamide]: the IC50 in assay [1] worked out at 33.4 nM; in assay [2] (setting [7]), 17.5 nM; in assay [3], 149 nM; in assay [4] (setting [8]) it was 6.7 nM; in assay [4] (setting [9]) it was 2.4 nM; in assay [5], 1.6 nM. In assay [6], this compound showed an IC50 of 499 nM.
